# Source: ChEMBL document CHEMBL5236600, “Identification of a Novel Potent CYP4Z1 Inhibitor Attenuating the Stemness of Breast Cancer Cells through Lead Optimization” (J Med Chem, 2022)
# Active and inactive are the calls of the source. No cut-off for these calls is given here.
# Assays:
# [1] = test system: MDA-MB-231; assay: Antitumor activity against human MDA-MB-231 cells implanted in BALB/c mouse assessed as reduction in stem cell frequency administered drug pretreated cells subcutaneously and observed after 2 weeks; assay type: functional, cell-based; conditions: route sc
# [2] = test system: MCF7; assay: Inhibition of cell migration of human MCF7 cells at 0.8 to 51.2 uM incubated for 48 hrs by wound healing assay; assay type: functional, cell-based; conditions: dose 0.8-51.2 µM
# [3] = test system: MCF7; assay: Antitumor activity against human MCF7 cells implanted in BALB/c mouse assessed as reduction in stem cell frequency administered drug pretreated cells subcutaneously and observed after 2 weeks; assay type: functional, cell-based; conditions: route sc
# [4] = test system: MDA-MB-231; assay: Inhibition of cell stemness in human MDA-MB-231 cells assessed as reduction in SOX2 expression at 0.8 to 51.2 uM by western blot analysis; assay type: functional, cell-based; conditions: dose 0.8-51.2 µM
# [5] = test system: MDA-MB-231; assay: Inhibition of cell invasion of human MDA-MB-231 cells at 0.8 to 51.2 uM incubated for 24 hrs by transwell invasion assay; assay type: functional, cell-based; conditions: dose 0.8-51.2 µM
# [6] = test system: MCF7; assay: Inhibition of cell stemness in human MCF7 cells assessed as reduction in SOX2 expression at 0.8 to 51.2 uM by western blot analysis; assay type: functional, cell-based; conditions: dose 0.8-51.2 µM
# [7] = Stability in mouse liver microsomes assessed as half life at 1 uM incubated upto 60 mins in presence of NADPH by LC-MS/MS analysis; assay type: ADME, Microsome
# [8] = test system: MCF7; assay: Antitumor activity against human MCF7 cells implanted in BALB/c mouse assessed as decrease in ALDH1A1 expression administered drug pretreated cells subcutaneously and observed after 2 weeks by immunohistochemistry; assay type: functional, cell-based; conditions: route sc
# [9] = test system: MCF7; assay: Antitumor activity against human MCF7 cells implanted in BALB/c mouse assessed as change in stem cell frequency administered drug pretreated cells subcutaneously and observed after 2 weeks by colligation test; assay type: functional, cell-based; conditions: route sc
# [10] = test system: MDA-MB-231; assay: Antiproliferative activity against human MDA-MB-231 cells assessed as decrease in CD44+/CD24- cell population at 0.8 to 51.2 uM incubated for 30 mins by flow cytometry analysis; assay type: functional, cell-based; conditions: dose 0.8-51.2 µM
# [11] = test system: MDA-MB-231; assay: Inhibition of cell migration of human MDA-MB-231 cells at 0.8 to 51.2 uM incubated for 24 hrs by wound healing assay; assay type: functional, cell-based; conditions: dose 0.8-51.2 µM
# [12] = target: Cytochrome P450 3A4 (Homo sapiens, UniProt P08684); assay: Inhibition of human recombinant CYP3A4 using Luciferin-IPA as substrate incubated for 30 mins in presence of NADPH by luminescence based assay; assay type: ADME
# Cytochrome P450 3A4, sequence (P08684 whole entry): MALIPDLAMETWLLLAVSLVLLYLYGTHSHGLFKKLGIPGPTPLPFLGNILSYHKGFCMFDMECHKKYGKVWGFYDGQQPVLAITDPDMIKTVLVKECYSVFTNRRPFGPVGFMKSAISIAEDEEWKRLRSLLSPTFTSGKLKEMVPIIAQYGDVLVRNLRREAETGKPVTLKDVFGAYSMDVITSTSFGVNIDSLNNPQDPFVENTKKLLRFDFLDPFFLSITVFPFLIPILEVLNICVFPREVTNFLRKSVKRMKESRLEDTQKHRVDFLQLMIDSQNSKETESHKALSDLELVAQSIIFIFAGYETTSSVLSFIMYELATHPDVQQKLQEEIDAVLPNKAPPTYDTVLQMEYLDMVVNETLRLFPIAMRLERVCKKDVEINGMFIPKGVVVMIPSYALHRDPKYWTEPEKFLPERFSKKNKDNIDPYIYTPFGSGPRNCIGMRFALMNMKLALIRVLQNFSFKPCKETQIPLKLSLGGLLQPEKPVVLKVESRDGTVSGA
# [13] = test system: MDA-MB-231; assay: Inhibition of cell stemness in human MDA-MB-231 cells assessed as reduction in P-gP expression at 0.8 to 51.2 uM by western blot analysis; assay type: functional, cell-based; conditions: dose 0.8-51.2 µM
# [14] = test system: MCF7; assay: Antitumor activity against human MCF7 cells implanted in BALB/c mouse assessed as decrease in Ki67 expression administered drug pretreated cells subcutaneously and observed after 2 weeks by immunohistochemistry; assay type: functional, cell-based; conditions: route sc
# [15] = test system: MDA-MB-231; assay: Antiproliferative activity against human MDA-MB-231 cells assessed as cell growth inhibition incubated for 72 hrs by MTT assay; assay type: functional, cell-based; conditions: MDA-MB-231, 72 h
# [16] = Toxicity in mouse assessed as body weight loss at 2000 mg/kg,po administered for 7 days; assay type: organism-based; conditions: in vivo, 168 h, time 7 day
# [17] = test system: MDA-MB-231; assay: Inhibition of cell stemness in human MDA-MB-231 cells assessed as reduction in ALDH1A1 expression at 0.8 to 51.2 uM by western blot analysis; assay type: functional, cell-based; conditions: dose 0.8-51.2 µM
# [18] = test system: MCF7; assay: Inhibition of cell stemness in human MCF7 cells assessed as reduction in OCT4 expression at 0.8 to 51.2 uM by western blot analysis; assay type: functional, cell-based; conditions: dose 0.8-51.2 µM
# [19] = test system: MCF7; assay: Antiproliferative activity against human MCF7 cells assessed as decrease in CD44+/CD24- cell population at 0.8 to 51.2 uM incubated for 30 mins by flow cytometry analysis; assay type: functional, cell-based; conditions: dose 0.8-51.2 µM
# [20] = test system: MCF7; assay: Antiproliferative activity against human MCF7 cells assessed as decrease in spheroid size at 3.2 to 51.2 uM incubated for 10 days; assay type: functional, cell-based; conditions: dose 3.2-51.2 µM, time 10.0 day
# [21] = target: Cytochrome P450 2C9 (Homo sapiens, UniProt P11712); assay: Inhibition of human recombinant CYP2C9 using Luciferin CEE as substrate incubated for 30 mins in presence of NADPH by luminescence based assay; assay type: ADME
# Cytochrome P450 2C9, sequence (P11712 whole entry): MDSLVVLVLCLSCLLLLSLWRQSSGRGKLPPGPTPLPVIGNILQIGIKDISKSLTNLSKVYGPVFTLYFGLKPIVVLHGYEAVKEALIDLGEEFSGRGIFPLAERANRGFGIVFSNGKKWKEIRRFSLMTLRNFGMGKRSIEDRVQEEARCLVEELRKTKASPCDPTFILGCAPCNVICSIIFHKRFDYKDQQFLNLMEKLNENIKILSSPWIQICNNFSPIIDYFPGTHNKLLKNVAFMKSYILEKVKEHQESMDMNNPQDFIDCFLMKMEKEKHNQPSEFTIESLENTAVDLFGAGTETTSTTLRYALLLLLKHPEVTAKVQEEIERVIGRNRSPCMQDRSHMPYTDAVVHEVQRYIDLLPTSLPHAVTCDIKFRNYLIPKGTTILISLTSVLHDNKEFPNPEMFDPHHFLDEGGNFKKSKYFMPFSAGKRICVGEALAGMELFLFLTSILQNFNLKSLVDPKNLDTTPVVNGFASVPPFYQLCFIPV
# [22] = test system: MCF7; assay: Antiproliferative activity against human MCF7 cells assessed as cell growth inhibition incubated for 72 hrs by MTT assay; assay type: functional, cell-based; conditions: MCF7, 72 h
# [23] = test system: MDA-MB-231; assay: Antitumor activity against human MDA-MB-231 cells implanted in BALB/c mouse assessed as decrease in ALDH1A1 expression administered drug pretreated cells subcutaneously and observed after 2 weeks by immunohistochemistry; assay type: functional, cell-based; conditions: route sc
# [24] = test system: MCF7; assay: Inhibition of cell invasion of human MCF7 cells at 0.8 to 51.2 uM incubated for 48 hrs by transwell invasion assay; assay type: functional, cell-based; conditions: dose 0.8-51.2 µM
# [25] = test system: MCF7; assay: Inhibition of cell stemness in human MCF7 cells assessed as reduction in Nanog expression at 0.8 to 51.2 uM by western blot analysis; assay type: functional, cell-based; conditions: dose 0.8-51.2 µM
# [26] = test system: MDA-MB-231; assay: Antitumor activity against human MDA-MB-231 cells implanted in BALB/c mouse assessed as decrease in OCT4 expression administered drug pretreated cells subcutaneously and observed after 2 weeks by immunohistochemistry; assay type: functional, cell-based; conditions: route sc
# [27] = test system: MDA-MB-231; assay: Antitumor activity against human MDA-MB-231 cells implanted in BALB/c mouse assessed as reduction in tumor formation ratio administered drug pretreated cells subcutaneously and observed after 2 weeks; assay type: functional, cell-based; conditions: route sc
# [28] = test system: MDA-MB-231; assay: Antiproliferative activity against human MDA-MB-231 cells assessed as decrease in spheroid number at 3.2 to 51.2 uM incubated for 10 days; assay type: functional, cell-based; conditions: dose 3.2-51.2 µM, time 10.0 day
# [29] = test system: MCF7; assay: Inhibition of cell stemness in human MCF7 cells assessed as reduction in P-gP expression at 0.8 to 51.2 uM by western blot analysis; assay type: functional, cell-based; conditions: dose 0.8-51.2 µM
# [30] = test system: MDA-MB-231; assay: Antiproliferative activity against human MDA-MB-231 cells assessed as decrease in spheroid size at 3.2 to 51.2 uM incubated for 10 days; assay type: functional, cell-based; conditions: dose 3.2-51.2 µM, time 10.0 day
# [31] = test system: MDA-MB-231; assay: Antitumor activity against human MDA-MB-231 cells implanted in BALB/c mouse assessed as change in stem cell frequency administered drug pretreated cells subcutaneously and observed after 2 weeks by colligation test; assay type: functional, cell-based; conditions: route sc
# [32] = test system: MCF7; assay: Inhibition of cell stemness in human MCF7 cells assessed as reduction in ALDH1A1 expression at 0.8 to 51.2 uM by western blot analysis; assay type: functional, cell-based; conditions: dose 0.8-51.2 µM
# [33] = test system: MDA-MB-231; assay: Antitumor activity against human MDA-MB-231 cells implanted in BALB/c mouse assessed as change in tumor weight administered drug pretreated cells subcutaneously and observed after 2 weeks; assay type: functional, cell-based; conditions: route sc
# [34] = test system: MCF7; assay: Antitumor activity against human MCF7 cells implanted in BALB/c mouse assessed as decrease in OCT4 expression administered drug pretreated cells subcutaneously and observed after 2 weeks by immunohistochemistry; assay type: functional, cell-based; conditions: route sc
# [35] = test system: MDA-MB-231; assay: Inhibition of cell stemness in human MDA-MB-231 cells assessed as reduction in Nanog expression at 0.8 to 51.2 uM by western blot analysis; assay type: functional, cell-based; conditions: dose 0.8-51.2 µM
# [36] = test system: MCF7; assay: Antitumor activity against human MCF7 cells implanted in BALB/c mouse assessed as reduction in tumor formation ratio administered drug pretreated cells subcutaneously and observed after 2 weeks; assay type: functional, cell-based; conditions: route sc
# [37] = test system: MCF7; assay: Inhibition of cell stemness in human MCF7 cells assessed as reduction in OCT3 expression at 0.8 to 51.2 uM by western blot analysis; assay type: functional, cell-based; conditions: dose 0.8-51.2 µM
# [38] = Stability in mouse plasma assessed as half life at 40 uM incubated upto 5 hrs by LC-MS/MS analysis; assay type: ADME, cell-free
# [39] = test system: MCF7; assay: Antiproliferative activity against human MCF7 cells assessed as decrease in spheroid number at 3.2 to 51.2 uM incubated for 10 days; assay type: functional, cell-based; conditions: dose 3.2-51.2 µM, time 10.0 day
# [40] = test system: MDA-MB-231; assay: Inhibition of cell stemness in human MDA-MB-231 cells assessed as reduction in OCT3 expression at 0.8 to 51.2 uM by western blot analysis; assay type: functional, cell-based; conditions: dose 0.8-51.2 µM
# [41] = test system: MDA-MB-231; assay: Inhibition of cell stemness in human MDA-MB-231 cells assessed as reduction in OCT4 expression at 0.8 to 51.2 uM by western blot analysis; assay type: functional, cell-based; conditions: dose 0.8-51.2 µM
# [42] = test system: MDA-MB-231; assay: Antitumor activity against human MDA-MB-231 cells implanted in BALB/c mouse assessed as decrease in Ki67 expression administered drug pretreated cells subcutaneously and observed after 2 weeks by immunohistochemistry; assay type: functional, cell-based; conditions: route sc
# [43] = target: Cytochrome P450 2D6 (Homo sapiens, UniProt P10635); assay: Inhibition of human recombinant CYP2D6 using Luciferin-ME EGE as substrate incubated for 30 mins in presence of NADPH by luminescence based assay; assay type: ADME
# Cytochrome P450 2D6, sequence (P10635 whole entry): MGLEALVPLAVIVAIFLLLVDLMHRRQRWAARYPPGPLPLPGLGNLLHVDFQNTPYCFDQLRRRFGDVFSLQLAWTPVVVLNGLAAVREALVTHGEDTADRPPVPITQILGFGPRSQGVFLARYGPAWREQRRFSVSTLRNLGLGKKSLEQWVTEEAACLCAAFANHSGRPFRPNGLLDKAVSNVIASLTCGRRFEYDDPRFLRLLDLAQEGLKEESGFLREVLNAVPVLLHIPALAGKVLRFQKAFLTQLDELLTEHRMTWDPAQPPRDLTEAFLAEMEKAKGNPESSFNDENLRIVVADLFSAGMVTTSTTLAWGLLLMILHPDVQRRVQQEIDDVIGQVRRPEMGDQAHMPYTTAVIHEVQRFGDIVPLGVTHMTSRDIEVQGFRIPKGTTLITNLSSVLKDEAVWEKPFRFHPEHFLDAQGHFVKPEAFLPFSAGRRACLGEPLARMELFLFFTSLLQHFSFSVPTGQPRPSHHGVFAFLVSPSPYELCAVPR
# [44] = test system: MCF7; assay: Antitumor activity against human MCF7 cells implanted in BALB/c mouse assessed as change in tumor weight administered drug pretreated cells subcutaneously and observed after 2 weeks; assay type: functional, cell-based; conditions: route sc
# [45] = target: T1, Cytochrome P450 4Z1 (Homo sapiens, UniProt Q86W10); assay: Inhibition of CYP4Z1 in human HEK293T cells using Luciferin-BE as substrate at 1 uM incubated for 30 mins in presence of NADPH by luminescence based assay relative to control; assay type: ADME, cell-based; conditions: HEK-293T, 0.5 h
# T1 sequence (Q86W10 whole entry): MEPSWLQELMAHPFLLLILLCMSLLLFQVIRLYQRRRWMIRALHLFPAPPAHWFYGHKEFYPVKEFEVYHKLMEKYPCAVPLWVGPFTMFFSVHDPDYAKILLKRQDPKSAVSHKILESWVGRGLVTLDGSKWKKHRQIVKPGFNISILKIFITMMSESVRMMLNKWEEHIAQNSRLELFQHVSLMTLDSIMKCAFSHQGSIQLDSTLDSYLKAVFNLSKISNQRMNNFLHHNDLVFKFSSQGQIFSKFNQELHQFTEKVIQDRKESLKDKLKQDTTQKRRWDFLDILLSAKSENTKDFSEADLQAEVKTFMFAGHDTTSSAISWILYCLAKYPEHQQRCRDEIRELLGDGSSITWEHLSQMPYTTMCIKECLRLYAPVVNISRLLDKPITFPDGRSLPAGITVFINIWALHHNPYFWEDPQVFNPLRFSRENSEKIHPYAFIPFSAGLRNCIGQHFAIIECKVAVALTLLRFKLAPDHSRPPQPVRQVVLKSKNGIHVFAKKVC
# [46] = target: T1, Cytochrome P450 4Z1; assay: Inhibition of CYP4Z1 in human HEK293T cells using Luciferin-BE as substrate at 10 uM incubated for 30 mins in presence of NADPH by luminescence based assay relative to control; assay type: ADME, cell-based; conditions: HEK-293T, 0.5 h
compound,measurement,setting,value
CCOC(=O)CCCc1ccc(N/C=N/O)cc1,Activity,[1],Active
same,inhibition,[2],Dose-Dependent Effect
same,Activity,[3],Active
same,inhibition,[4],Dose-Dependent Effect
same,inhibition,[5],Active
same,inhibition,[6],Dose-Dependent Effect
same,half-life at 1 µM,[7],12.8 min
same,Activity,[8],Active
same,Activity,[9],Active
same,Activity,[10],Dose-Dependent Effect
same,inhibition,[11],Dose-Dependent Effect
same,IC50,[12],> 10000 nM
same,inhibition,[13],Dose-Dependent Effect
same,Activity,[14],Active
same,IC50,[15],483 nM
same,Activity,[16],Non-Toxic
same,inhibition,[17],Dose-Dependent Effect
same,inhibition,[18],Dose-Dependent Effect
same,Activity,[19],Dose-Dependent Effect
same,Activity,[20],Dose-Dependent Effect
same,IC50,[21],> 10000 nM
same,IC50,[22],483 nM
same,Activity,[23],Active
same,inhibition,[24],Active
same,inhibition,[25],Dose-Dependent Effect
same,Activity,[26],Active
same,Activity,[27],Active
same,Activity,[28],Dose-Dependent Effect
same,inhibition,[29],Dose-Dependent Effect
same,Activity,[30],Dose-Dependent Effect
same,Activity,[31],Active
same,inhibition,[32],Dose-Dependent Effect
same,Activity,[33],inactive
same,Activity,[34],Active
same,inhibition,[35],Dose-Dependent Effect
same,Activity,[36],Active
same,inhibition,[37],Dose-Dependent Effect
same,half-life at 40 µM,[38],24.6 min
same,Activity,[39],Dose-Dependent Effect
same,inhibition,[40],Dose-Dependent Effect
same,inhibition,[41],Dose-Dependent Effect
same,Activity,[42],Active
same,IC50,[43],> 10000 nM
same,Activity,[44],inactive
O=C(O)Cc1ccc(N/C=N/O)cc1,inhibition at 1 µM,[45],36.5%
same,inhibition at 10 µM,[46],54.3%
